Reference: patent publication US8802439B2, “Methods for enhancing infectivity of retroviruses” (priority 2009, dated 2014)
“Also recorded” adds a separate entry of the source.

Columns and labels:
Type in all cases: cell-based
HIV-1 [1] = experiment: HIV-1 viral production in 293T producer cells, p24 ELISA of supernatants
Source text: Plasmids: Laboratory-adapted provirus NL4.3, and the CypA-independent NL4.3 CAi2 were kindly provided by Akio Adachi (Department of Virology, Institute of Health Biosciences, The University of Tokushima Graduate School, JAPAN). Mutant R9G89V was a gift from P. Gallay (TSR1) as were NL4.3-GFP and SIV-GFP (originally Dana Gabuzda, Dana Farber Cancer Institute). NL4.3 A92E was kindly provided by W. Phares (Genetics Unit, Novartis Forschungsinstitut, Vienna, Austria). R9Δgp160 plasmid clone was kindly provided by C. Aiken (Vanderbilt Medical Center). VSV-G (CMV-VSV-G) was kindly provided by D. Trono (École Polytechnique Fédérale de Lausanne). Both bMLV-GFP and nMLV-GFP in the form of pCIG3-N, pCIG3-B as well as pCNCG were kindly provided by J. Stoye (National Institute for Medical Research, UK). Isomerase mutant Pin1 (pFLAG-Pin1R68,69A) and WW-domain mutant Pin1 (pFLAG-Pin1 W34A) were constructed by site-directed mutagenesis. Pseudotyping experiments were performed using DNA constructs encoding the VSV-G generously provided by D. Trono. Human Pin1 was cloned into pFLAG (Sigma-Aldrich) making pFLAG-Pin1. Viruses were produced by transfection of 293T cells using either GeneJuice (Novagen) or calcium phosphate. […] All viruses were harvested 24-48 hours post-transfection and filtered (0.2-μM filter, Steriflip Millipore). […]

HIV-1 [2] = experiment: Single-round infectivity on TZM-bl cells of HIV-1 produced in Pin1-inhibited 293T cells (Galacton-Star galactosidase assay); conditions: for boost of infectivity: TZM-bl target cells
Source text: Viral inocula from transfections above were normalized to equal virion particle number via p24 ELISA and used to infect target CD4^+ HeLa cells (1×10^5 TZM-bl). Infectivity was scored using the Galacton-Star enzymatic galactosidase activity assay, and infectivity quantified by relative […] units (R.F.U).
Plasmids: Laboratory-adapted provirus NL4.3, and the CypA-independent NL4.3 CAi2 were kindly provided by Akio Adachi (Department of Virology, Institute of Health Biosciences, The University of Tokushima Graduate School, JAPAN). Mutant R9G89V was a gift from P. Gallay (TSR1) as were NL4.3-GFP and SIV-GFP (originally Dana Gabuzda, Dana Farber Cancer Institute). NL4.3 A92E was kindly provided by W. Phares (Genetics Unit, Novartis Forschungsinstitut, Vienna, Austria). R9Δgp160 plasmid clone was kindly provided by C. Aiken (Vanderbilt Medical Center). VSV-G (CMV-VSV-G) was kindly provided by D. Trono (École Polytechnique Fédérale de Lausanne). Both bMLV-GFP and nMLV-GFP in the form of pCIG3-N, pCIG3-B as well as pCNCG were kindly provided by J. Stoye (National Institute for Medical Research, UK). Isomerase mutant Pin1 (pFLAG-Pin1R68,69A) and WW-domain mutant Pin1 (pFLAG-Pin1 W34A) were constructed by site-directed mutagenesis. Pseudotyping experiments were performed using DNA constructs encoding the VSV-G generously provided by D. Trono. Human Pin1 was cloned into pFLAG (Sigma-Aldrich) making pFLAG-Pin1. Viruses were produced by transfection of 293T cells using either GeneJuice (Novagen) or calcium phosphate. […] All viruses were harvested 24-48 hours post-transfection and filtered (0.2-μM filter, Steriflip Millipore). HIV-1 viruses were normalized by p24 ELISA (Alliance HIV-1 p24 Antigen ELISA Kit, Perkin Elmer), and/or were normalized via the EnzChek® Reverse Transcriptase Assay Kit (E-22064) (Molecular Probes).
(§1) Infection assays for retrovirus: Single-round infections: CD4^+ TZM-bl 100,000 cells/well/mL were seeded onto 24-well plates 24 hours prior to infection. These cells were infected in quadruplicate to 24-well plates. Infectivity was scored using an enzymatic galactosidase activity assay. Specifically, infected TZM-bl cells were washed and lysed, and 20 μl of lysate was transferred to a 96-well plate for detecting β-galactosidase activity. 100 μl of reaction buffer Galacton-Star substrate (Applied Biosystems, Bedford, Mass.), diluted 1:50, was added to 20 μl of lysate, and the light emission was measured over 1 second in a microplate luminometer after 30 minutes incubation. For human PBMC infections, cells were exposed to 10 ng of wild-type virus for 6 hours, washed, and split into two flasks: one with 10 μM PiB added on day 0 and 3, and one without PiB. Replication was monitored by p24 ELISA. For measuring infectivity of GFP-virus, 50,000 TZMb1, sMAGI, OMK, Vero, BSC-1 and CV-1 cells/well/mL were seeded onto 6-well plates respectively 24 hours prior to infection. Viruses were used to infect in duplicate wells, incubated for 48 hours, washed with PBS, trypsinized, fixed in 1% formaldehyde and subsequently analyzed by fluorescence-activated cell sorting (FACS) for percentage cells infected.
To examine a potential role for Pin1 in HIV-1 replication we used two inhibitors of Pin1: juglone and PiB. […] 293T cells were transfected with a proviral construct encoding wild-type HIV-1 in the presence or absence of PiB or juglone.

HIV-1 [3] = experiment: HIV-1 replication in human PBLs monitored by p24 ELISA
Procedure: (E) Replication kinetics of wild-type HIV-1 in human PBLs is enhanced by Pin1 isomerase inhibitors. 2×10^6 PBLs from patient donors were challenged with HIV-1 in the presence (lighter squares, top) or absence (black circles, bottom) of 10 μM PiB, which was added again at day 3 to maintain drug pressure. Replication was monitored by sampling virus concentration in supernatants via p24 ELISA.
Cell Lines and PBMCs: The TZM-bl cell line was obtained through the NIH AIDS Research and Reference Reagent Program, Division of AIDS, NIAID, NIH: TZM-bl from Dr. John C. Kappes, Dr. Xiaoyun Wu and Tranzyme Inc. The sMAGI cell line was obtained through the AIDS Research and Reference Reagent Program, Division of AIDS, NIAID, NIH: CMMT-CD4-LTR-β-Gal (sMAGI) from Dr. Julie Overbaugh. African green kidney BS-C-1 CCL-26, African green kidney CV-1 CCL-70, African green kidney Vero CCL-81, owl kidney OMK(637-69) CRL-1556 and 293T cell lines were obtained from ATCC. To generate PBMCs, human blood from normal healthy donors (General Clinical Research Center, TSR1) was fractionated via gradient centrifugation through histopaque-1077 (Sigma-Aldrich). Peripheral blood lymphocytes (PBLs) were cultured in RPMI supplemented with 20% FBS, 20 U ml^−1 IL-2.
as §1, with “infected. […]” for “infected.”
PBLs from human donors were challenged with HIV-1 in the presence (squares) or absence (circles) of 10 μM PiB. Replication was monitored by sampling virus concentration in supernatants via p24 ELISA. […]

[4] = produced in 293T with 10 μm PiB, TZMb1

SMILES: CCOC(=O)CN1C(=O)c2ccc3c4c(ccc(c24)C1=O)C(=O)N(CC(=O)OCC)C3=O [PiB, diethyl-1,3,6,8-tetrahydro-1,3,6,8-tetraoxobenzo[lmn][3,8]phenanthroline-2,7-diacetate]
- viral production (HIV-1 capsid in viral supernatants by p24 ELISA) (HIV-1 [1]): Neither inhibitor influences viral production; also recorded: do not alter viral production
- HIV-1 infectivity after treatment of target cells (HIV-1 [2]; TZM-bl pre-incubated with 0, 2, 10 μM PiB for 24 hours before VSV-G pseudotyped virus, read 48 hours post-infection): no effect on HIV-1 infectivity
- infectivity of VSV-G pseudotyped HIV-1 lacking gp160 (NL4.3 Δenv) (HIV-1 [2]; produced in 293T in the presence of 2 μM or 10 μM PiB, TZM-bl): enhanced
- boost of wild-type NL4.3 virus in the FIG. 3H experiment (HIV-1 [2]; [4]): rather mild boost
- infectivity of CypA-deficient R9G89V mutant HIV-1 (HIV-1 [2]; [4]): dramatically boosted
- boost of infectivity (HIV-1 [2]; viruses produced in 293T in the presence of 2.0 μM inhibitor): 2 fold
- boost of infectivity (HIV-1 [2]; viruses produced in 293T in the presence of 10 μM PiB): 8 fold
- replication kinetics of wild-type HIV-1 in human PBLs (HIV-1 [3]; 10 μM PiB, added again at day 3): enhanced
- elevated replication kinetics versus untreated (HIV-1 [3]; human PBLs, 10 μM PiB, after six days, average of two donors): seven fold
- increase in infectivity versus untreated (HIV-1 [3]; human PBLs, day 5): seven-fold
- p24 in supernatant at peak replicative differential (HIV-1 [3]; human PBLs, day 5, untreated 0.2 μg/ml): 1.4 µg/mL
